From patent US11390582B2, “Polymorphs of 1-(4-benzyloxy-benzyl)-3-methyl-thiourea” (Seoul National University R&DB Foundation, priority 2019, dated 2022)

How the values were obtained:
Assay type in all cases: physicochemical
[1] = Stability test of crystalline forms A and B (25° C./60% RH and 40° C./75% RH, 1 week); conditions: for Increase of impurities under given conditions: 25° C./60% RH and 40° C./75% RH; for Increase of impurities under given conditions / Change of crystalline form: in words
Source text: Experimental Example 4. Stability Test
(§1) From a pharmaceutical point of view, the stability of an active ingredient is very important. It is not preferable pharmaceutically that impurities are excessively produced or the crystalline form is changed under a storage condition.

[2] = Hygroscopicity test through dynamic vapor sorption (DVS); conditions: for Hygroscopicity (25° C./80% RH): DVS; for Morphology Change: after DVS hygroscopicity test
Source text: Experimental Example 3. Hygroscopicity Test Through Dynamic Vapor Sorption (DVS)
From a pharmaceutical point of view, it is desired to maintain the initial moisture and morphology without absorbing moisture even in a moisture environment.

[3] = Stability test under storage condition at room temperature (crystalline form A, up to 6 months); conditions: for Crystalline form / Purity (%): room temperature storage
Source text: Experimental Example 5. Stability Test Under Storage Condition
as §1

[4] = storage conditions at room temperature, in words

Row | Compound | Increase of impurities under given conditions [1] | Final crystalline form ([1]; 25° C./60% RH, 1 week) | HPLC Purity (area %) ([1]; 25° C./60% RH, 1 week) | Final crystalline form ([1]; 40° C./75% RH, 1 week) | HPLC Purity (area %) ([1]; 40° C./75% RH, 1 week) | HPLC Purity (area %) ([1]; Initial) | Hygroscopicity (25° C./80% RH) [2] [%] | Morphology Change [2] | further results
1 | CNC(=S)NCc1ccc(OCc2ccccc2)cc1 [Crystalline form B, 1-(4-benzyloxy-benzyl)-3-methyl-thiourea] | impurities were not increased | forms A + B | 99.70 | form A | 99.72 | 99.49 | 0.20 | No | Change of crystalline form ([1]; acceleration condition): all changed into crystalline form A; Change of crystalline form ([1]; storage condition at room temperature): being changed into crystalline form A
2 | CNC(=S)NCc1ccc(OCc2ccccc2)cc1 [Crystalline form A, 1-(4-benzyloxy-benzyl)-3-methyl-thiourea] | impurities were not increased | form A | 99.71 | form A | 99.66 | 99.55 | 0.07 | No | Crystalline form ([3]; 1 month): form A; Purity (%) ([3]; 1 month): 100.0%; Crystalline form ([3]; 3 months): form A; Purity (%) ([3]; 3 months): 100.0%; Crystalline form ([3]; 6 months): form A; Purity (%) ([3]; 6 months): 100.0%; Crystalline form ([3]; Initial): form A; Purity (%) ([3]; Initial): 100.0%; Change of crystalline form [3, 4]: the crystalline form was not changed; Increase of impurities [3, 4]: impurities were not increased; Moisture content compared between forms ([2]; 80% moisture condition, in words): contains less moisture under 80% moisture condition than crystalline form B
